Laboratory results reported in US7202280B2, “Methods for the treatment and prevention of pancreatitis and for induction of liver regeneration” (priority 2002, dated 2007).

Assays:
PAO = assay: Hepatic PAO activity in SSAT transgenic rats after polyamine analogues without or with MDL72527; type: in vivo, rat; conditions: MDL72527 50 mg/kg i.p. twice, alone or in combination with the analogues
Experimental: FIGS. 9A–9B. Effect of polyamine analogues without or with MDL72527 on hepatic SSAT (FIG. 9A) and PAO (FIG. 9B) activities in SSAT transgenic rats. The rats were treated with the drugs as described in the legend for FIGS. 8A–8D. There were three to four animals in each group.
The production of transgenic Wistar rats (UKUR30) and mice (UKU181) harboring metallothionein-SSAT fusion gene (Suppola, S., Pietilä, M., Parkkinen, J. J., Korhonen, V. P., Alhonen, L., Halmekytö, M., Porter, C. W., and Jänne, J. (1999) Biochem. J. 338, 311–316) has been described earlier (Alhonen, L., Parkkinen, J. J., Keinänen, T., Sinervirta, R., Herzig, K. H., and Jänne, J. (2000) Proc. Natl. Acad. Sci. U.S.A. 97, 8290–8295; Lukkarinen, J., Gröhn, O., Sinervirta, R., Järvinen, A., Kauppinen, R. A., Jänne, J., and Alhonen, L. (1997) Stroke 28, 639–645). Partial hepatectomy was carried out according to the original method of Higgins and Anderson (Higgins, G. H., and Anderson, R. M. (1931) Arch. Pathol. 12, 186–202). […]
PAO activity was measured to verify the effectiveness of MDL72527 treatment and to determine whether the analogues have any effect on its activity. […]

SSAT transgenic rats = assay: Stability of the analogues in the liver of SSAT transgenic rats without or with MDL72527 (hepatic polyamine pools); type: in vivo, rat; conditions: MDL72527 50 mg/kg i.p. twice
Experimental: FIGS. 8A-8D. Hepatic polyamine pools in SSAT transgenic rats treated with methylated polyamine analogues without or with MDL72527. The rats were injected twice with MDL72527 (50 mg/kg i.p.) at 16-h interval. The polyamine analogues (25 mg/kg i.p.) were injected 2 and 8 h later. The animals were sacrificed 24 h after the last MDL72527 injection. There were three to four animals in each group. Put, putrescine; […] Spd, spermidine; Me-Spd, α-methylspermidine; […] The production of transgenic Wistar rats (UKUR30) and mice (UKU181) harboring metallothionein-SSAT fusion gene (Suppola, […]., Porter, C. W., and Jänne, J. (1999) Biochem. […] (2000) Proc. Natl. Acad. Sci. U.S.A. 97, 8290-8295; Lukkarinen, […]., and Alhonen, L. (1997) Stroke 28, 639-645). Partial hepatectomy was carried out according to the original method of Higgins and Anderson (Higgins, G. H., and Anderson, R. M. (1931) Arch. Pathol. 12, 186-202). Treatments before partial hepatectomy and the determination of DNA synthesis were carried out as in ([…]., Suppola, […]., and […]. Biol. Chem. 277, 39867-39872). Transgenic 10 weeks old male rats were injected twice with MDL72527 (50 mg/kg i.p.) at 16-h interval to inactivate PAO according to (Bolkenius, F. N., Bey, P., and Seiler, N. (1985) Biochim. Biophys. […] An aliquot of the homogenates was used for the polyamine assays. The homogenates were centrifuged (at 13 000×g, for 30 min, at 4° C.) and the supernatants were used for the enzyme activity assays. The Institutional Animal Care and Use Committee of the University of Kuopio and by the Provincial Government approved animal experiments. […] Merck (Darmstadt, Germany).

SMILES: C=C=CCNCCCCNCC=C=C [MDL72527, reference compound]
- hepatic PAO activity (PAO): virtually completely inhibited PAO activity
- hepatic putrescine and N^1-acetylspermidine pools (SSAT transgenic rats): greatly reduced putrescine content and increased the pool of N^1-acetylspermidine
